What was measured:
[1] = system: GFP-LC3 transfected PC-12 cells; assay: GFP-LC3 autophagic puncta formation by fluorescence microscopy; type: cell-based; conditions: for percentage of cells with GFP-LC3 puncta formation with addition of 3-MA: 60 μM hederagenin or 18 μM α-hederin with 5 mM 3-MA for 24 h; for formation of GFP-LC3 puncta with AMPK inhibitor compound C (CC): 60 μM hederagenin or 18 μM α-hederin with 5 mM CC for 24 h; for formation of fluorescent LC3 II puncta: PC-12 cells, hederagenin 20-80 μM, α-hederin 6-24 μM, 4-24 h
Description: Firstly, cells were plated on top of coverslips inside a 6-well culture dish. After compound treatment, cells were fixed with 4% paraformaldehyde for 20 min. FluorSave™ mounting media (Calbiochem, San Diego, Calif., USA) was used to mount the coverslips with cells before subjected to fluorescence microscopic analysis. The number of GFP-positive cells, and cells with GFP-LC3 puncta formation were examined and counted under the Nikon ECLIPSE 80i microscope by using 40× of magnification. In order to standardize the quantitation, the percentage of cells with autophagy induction was defined by counting the number of cells with increased punctate GFP-LC3 fluorescence in GFP-positive cells. A minimum of 1000 GFP-positive cells from 3 randomly selected fields were scored.
Firstly, cells were plated on top of coverslips inside a 6-well culture dish. After compounds treatments, cells were fixed with 4% paraformaldehyde for 20 min. FluorSave™ mounting media (Calbiochem, San Diego, Calif., USA) was used to mount the coverslips with cells before subjected to fluorescence microscopic analysis. The number of GFP-positive cells, and cells with GFP-LC3 puncta formation was examined and counted under the Nikon ECLIPSE 80i microscope by using 40× of magnification. In order to standardize the quantitation, the percentage of cells with autophagy induction was defined by counting the number of cells with punctate GFP-LC3 fluorescence in GFP-positive cells. A minimum of 1000 GFP-positive cells from 3 randomly selected fields were scored.

[2] = system: PC-12 cells treated with 0.5 mM MPTP; assay: Rescue from MPTP-induced cell death in PC-12 cells (MTT, Annexin V flow cytometry); type: cell-based; conditions: cell density, MTT assay and flow cytometry
Description: (§1) Cytotoxicity Assays and Flow Cytometry: Cell viability was measured by using the MTT method (3-[4,5-dimethylthiazol-2-yl]-2,5-diphenyl tetrazolium bromide) as described previously (Wu, A. G. et al. Int J Mol Sci 2013, 14:22618-22641). Absorbance (OD) of cell samples was obtained by spectrophotometer at 570 nm. The percentage of cell viability was calculated by using the formula: cell viability (%)=cells numbertreated/cells numberDMSO control×100. All MTT data were calculated from three independent experiments. Cell viability was also measured by flow cytometry using the Annexin V staining kit (BD Biosciences, San Jose, Calif., USA). In brief, PC-12 cells treated with hederagenin and α-hederin were analyzed by multiparametric flow cytometry using FITC-Annexin V and/or propidium iodide staining (BD Biosciences, San Jose, Calif., USA) by following manufacturer's instructions. Flow cytometry was then carried out using a FACSCalibur flow cytometer (BD Biosciences). Data acquisition and analysis were performed with CellQuest (BD Biosciences).

[3] = system: EGFP-HTT 74 (mutant huntingtin); assay: Mutant huntingtin (EGFP-HTT 74) clearance and inclusion formation in ATG7+/+ and ATG7−/− MEFs; type: cell-based, mouse; conditions: 24 h; for percentage of cells with fluorescence mutant huntingtin inclusion formation: ATG7−/− compared with ATG7+/+ MEFs after treatment; for inclusion clearance of overexpressed mutant huntingtin in ATG7+/+ MEFs: EGFP-HTT 74 transfected ATG7+/+ MEFs
From the text: (§2) Protein extraction and Western blots: Cells were harvested by RIPA lysis buffer (Cell Signaling Technologies, Beverly, Mass., USA), and with the final protein concentrations measured by using Bradford reagent (Bio-Rad, Hercules, Calif., USA). After electrophoresis for protein band separation, proteins were transferred to the nitrocellulose membrane which was blocked with 5% non-fat dried milk immediately after protein transfer. Corresponding primary antibodies, followed by the addition of HRP-conjugated secondary antibodies, were incubated with the protein membrane with constant shaking. Visualization of protein band pattern was performed by using the ECL Western Blotting Detection Reagents (Invitrogen, Paisley, Scotland). Band intensities were quantified by using the software, ImageJ (ImageJ 1.46r; National Institutes of Health, Bethesda, Md., USA).
Cells were then treated with either hederagenin or α-hederin for a further 24 h to determine the protein level of mutant huntingtin by Western blot analysis using an antibody against GFP (Ravikumar, B. et al., Nat Genet 2004, 36:585-595). On the other hand, ATG7 wild-type and ATG7-deficient MEF cells transfected with EGFP-HTT 74 were analyzed for the formation of huntingtin inclusion after 24 h of hederagenin or α-hederin treatment. Percentages of cells with cytoplasmic GFP-huntingtin (GFP-HTT74) inclusion formation were counted by the number of cells with GFP inclusions over the total number of GFP-positive cells in the same field under fluorescent microscopic analysis. More than 200 GFP-positive cells were scored for each treatment.

[4] = system: p-AMPK; assay: Western blot of AMPK phosphorylation; type: cell-based; conditions: hederagenin 0-80 μM, α-hederin 0-24 μM, 24 h
From the text: as §2

[5] = system: PC-12 cells; assay: MTT cytotoxicity assay in PC-12 cells; type: cell-based; conditions: for IC50: MTT assay for 48 h
Description: (§3) Cytotoxicity Assays: Cell viability was measured by using the MTT method (3-[4,5-dimethylthiazol-2-yl]-2,5-diphenyl tetrazolium bromide) as described previously (Wu, A. G. et al. Int J Mol Sci 2013, 14:22618-22641). Absorbance (OD) of cell samples was obtained by spectrophotometer at 570 nm. The percentage of cell viability was calculated by using the formula: cell viability (%)=cells numbertreated/cells numberDMSO control×100. All MTT data were calculated from three independent experiments.
as §3, with “experiments. Cell viability was also measured by flow cytometry using the Annexin V staining kit (BD Biosciences, San Jose, Calif., USA).” for “experiments.”
as §1, with “Data acquisition and analysis were performed with CellQuest (BD Biosciences).” left out

[6] = system: myc-tagged-A53T-α-syn; type: cell-based; conditions: PC-12 cells after 1 μg/ml Dox induction; hederagenin 40 or 60 μM, α-hederin 12 or 24 μM
From the text: as §2

[7] = system: LC3-II; assay: Western blot of LC3 conversion (LC3-II) in PC-12 cells; type: cell-based; conditions: for protein level of LC3-II with AMPK inhibitor compound C (CC): 60 μM hederagenin or 18 μM α-hederin with 5 μM CC; for protein level of LC3-II with addition of 3-MA: 60 μM hederagenin or 18 μM α-hederin with 5 mM 3-MA; for rate of LC3-II formation with lysosomal protease inhibitors (autophagic flux): 60 μM hederagenin or 18 μM α-hederin with E64d and pepstatin A (10 μg/mL), compared with compounds alone; for protein level of LC3-II: PC-12 cells, various durations and concentrations

SMILES | percentage of cells with GFP-LC3 puncta formation with addition of 3-MA [1] | formation of GFP-LC3 puncta with AMPK inhibitor compound C (CC) [1] | formation of fluorescent LC3 II puncta [1] | rescue from MPTP-induced cell death [2] | percentage of cells with fluorescence mutant huntingtin inclusion formation [3] | inclusion clearance of overexpressed mutant huntingtin in ATG7+/+ MEFs [3] | phosphorylation of AMPK [4] | IC50 ([5]; Rattus norvegicus) [µM] | clearance of overexpressed mutant A53T α-syn [6] | protein level of LC3-II with AMPK inhibitor compound C (CC) [7] | protein level of LC3-II with addition of 3-MA [7] | rate of LC3-II formation with lysosomal protease inhibitors (autophagic flux) [7] | protein level of LC3-II [7] | IC50 [5] [µM] | cytotoxicity at most effective concentration ([5]; hederagenin 80 μM, α-hederin 24 μM)
CC1(C)CC[C@]2(C(=O)O)CC[C@]3(C)C(=CC[C@@H]4[C@@]5(C)CC[C@H](O)[C@@](C)(CO)[C@@H]5CC[C@]43C)[C@@H]2C1 [hederagenin] | decreases the rate of autophagy | significant reduction | increased formation of fluorescent LC3 II puncta | rescue cells from MPTP-induced cell death | higher percentage of cells with fluorescence mutant huntingtin inclusion formation was found in ATG−/− MEFs | facilitate the inclusion clearance of overexpressed mutant huntingtin | increased phosphorylation of AMPK | > 100 | facilitate the clearance of the overexpressed mutant α- | significant reduction in protein level of LC3-II | decreased protein level of LC3-II | significantly increase the rate of LC3-II formation | increase in the protein level of LC3-II via a dose- and time-dependent manner | – | –
C[C@@H]1O[C@@H](O[C@H]2[C@H](O[C@H]3CC[C@@]4(C)[C@@H](CC[C@]5(C)[C@@H]4CC=C4[C@@H]6CC(C)(C)CC[C@]6(C(=O)O)CC[C@]45C)[C@]3(C)CO)OC[C@H](O)[C@@H]2O)[C@H](O)[C@H](O)[C@H]1O [α-hederin] | decreases the rate of autophagy | significant reduction | increased formation of fluorescent LC3 II puncta | rescue cells from MPTP-induced cell death | higher percentage of cells with fluorescence mutant huntingtin inclusion formation was found in ATG−/− MEFs | facilitate the inclusion clearance of overexpressed mutant huntingtin | increased phosphorylation of AMPK | – | facilitate the clearance of the overexpressed mutant α- | significant reduction in protein level of LC3-II | decreased protein level of LC3-II | significantly increase the rate of LC3-II formation | increase in the protein level of LC3-II via a dose- and time-dependent manner | 26.5 | lack of obvious cytotoxicity
